Assay in all cases: NCI anticancer screen, dose series, 48 h
The subject of test [1] is A549 NSCLC.
For test [2], the system named is HCT-116 colon.
The test system of test [3] is HL-60(TB) leukemia.
The test system of test [4] is HS 578T breast.
The test system of test [5] is HT29 colon.
The test system of test [6] is MDA-MB-435.
For test [7], the system named is OVCAR-5 ovarian.
Test [8] relates to SF-268 CNS.

These results are taken from PubChem BioAssay (NCI).

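96-well plates; 48 h exposure; 5 concentrations. Endpoints by linear interpolation between flanking doses. Not reached: highest tested concentration assigned. The concentration for 50% growth inhibition is given as GI50. Definition used: TGI = concentration required for complete inhibition of growth.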 Some results are limits rather than exact numbers.

Consider `CC(=O)OC1CC2C3CCC4C[C@@H](NC(=O)C=C(C)C)CC[C@]4(C)C3CC[C@]2(C)[C@H]1C(C)N(C)C` (some centres not stated), for which the GI50 in test [1] was 2.39 µM; in test [2] it was 0.854 µM; in test [3], 2.23 µM; in test [4] it was 2 µM; in test [5] it was 0.376 µM; in test [6], 2.17 µM. Besides, the GI50 in test [7] is 3.46 µM; in test [8], 1.58 µM. The TGI is 6.99 µM in test [1]; 2.22 µM in test [2]; 5.46 µM in test [3]; 5.25 µM in test [4]; 1.47 µM in test [5]; 4.82 µM in test [6]. For the same compound, the TGI came out at 10.4 µM in test [7] and 3.4 µM in test [8].
For the compound `CCCCCCCCn1ccc2cc(NC(=O)Cn3cc(CN4CCCCC4)nn3)ccc21`, the GI50 was 1.99 µM in test [1]; 1.7 µM in test [2]; 1.98 µM in test [3]; 1.96 µM in test [4]; 2.02 µM in test [5]; 1.68 µM in test [6]. The GI50 is 1.78 µM in test [7] and 2.05 µM in test [8]. The TGI worked out at 4.57 µM in test [1]; 3.19 µM in test [2]; 4.15 µM in test [3]; 4.84 µM in test [4]; 4.28 µM in test [5]; 3.15 µM in test [6]. The figures for the TGI in test [7] and in test [8] were 3.71 µM and 4.51 µM, respectively.
On to `CN(C)c1ccc(/C=C/C2=[N+](C)c3ccccc3C2(C)C)cc1`, for which the GI50 is 2.64 µM in test [1]; 0.44 µM in test [2]; 0.231 µM in test [3]; 4.15 µM in test [4]; 0.293 µM in test [5]; 0.467 µM in test [6]. Also, the GI50 is 2.22 µM in test [7] and 0.5 µM in test [8]. Further, the TGI in test [1] is 14.9 µM; in test [2] it was 20.3 µM; in test [3], 0.801 µM; in test [4], above 100 µM; in test [5] it was 2.53 µM; in test [6], 11.7 µM. For the same compound, the TGI came to 22.4 µM in test [7] and 18.3 µM in test [8].
`O=C1c2cc([N+](=O)[O-])ccc2-c2ccc3c4ccc5c6c(ccc(c7ccc1c2c73)c64)C(=O)c1cc([N+](=O)[O-])ccc1-5`: the TGI in test [1], in test [2], in test [3], in test [4], in test [5] and in test [6] was above 100 µM each time. Besides, the TGI in test [7] and in test [8] was above 100 µM in each case.
As to `COc1cc(C(=O)N/N=C/c2ccc(N(C)C)cc2)cc(OC)c1OC`, the GI50 was 0.502 µM in test [1]; 0.392 µM in test [2]; 0.303 µM in test [3]; 0.546 µM in test [4]; 0.347 µM in test [5]; 0.0743 µM in test [6]. The GI50 was 3.29 µM in test [7] and 1.12 µM in test [8]. For the same compound, the TGI in test [1] was above 100 µM; in test [2], above 100 µM; in test [4], above 100 µM; in test [6], 0.307 µM; in test [7], above 100 µM; in test [8] it was above 100 µM.
On to `NCC1OC(OC2C(CO)OC(OC3C(O)C(N)CC(N)C3OC3OC(CO)C(O)CC3N)C2O)C(N)C(O)C1OC1OC(CO)C(O)C(O)C1O` (configuration not stated), for which the GI50 in test [1], in test [2], in test [3], in test [4], in test [5] and in test [6] was above 50 µg/mL in each case. Moreover, the GI50 in test [7] and in test [8] was above 50 µg/mL in each case. The TGI in test [1], in test [2], in test [3], in test [4], in test [5] and in test [6] was above 50 µg/mL throughout. The TGI in test [7] and in test [8] was above 50 µg/mL throughout.
As for `N#C[Se]CCCNS(=O)(=O)C1CC2C=CC1C2` (configuration not stated), the GI50 in test [1] is 0.601 µM; in test [2], 0.276 µM; in test [3], 0.326 µM; in test [4], 0.409 µM; in test [5] it was 0.386 µM; in test [6] it was 0.361 µM. Further, the values for the GI50 in test [7] and in test [8] were 0.828 µM and 0.301 µM, respectively. Further, the TGI in test [1] came out at 2.63 µM; in test [2], 0.827 µM; in test [3] it was 1.31 µM; in test [4], 1.87 µM; in test [5] it was 5.31 µM; in test [6] it was 1.31 µM. Further, the TGI in test [7] turned out to be 5.13 µM; in test [8] it was 0.916 µM.
Take `Cn1c(=O)c(Oc2ccc(F)cc2F)cc2cnc(NC3CCS(=O)(=O)CC3)nc21`: the GI50 in test [1], in test [2], in test [3], in test [4], in test [5] and in test [6] was above 25 µM each time. Moreover, the results for the GI50 in test [7] and in test [8] were above 25 µM and above 18.9 µM, respectively. In addition, the TGI in test [1], in test [2], in test [3], in test [4], in test [5] and in test [6] was above 25 µM each time. The TGI in test [7] and in test [8] was above 25 µM throughout.
Consider `COc1ccc(C2=NN(C(=O)c3cc(OC)c(OC)c(OC)c3)C(c3ccc(N(C)C)cc3)C2)cc1` (configuration not stated), for which the GI50 in test [1] was 1.12 µM; in test [2], 0.439 µM; in test [3], 0.499 µM; in test [4], 0.266 µM; in test [5], 0.395 µM; in test [6], 0.205 µM. Moreover, the GI50 in test [7] was 0.732 µM; in test [8], 0.736 µM. For the same compound, the TGI in test [1] was above 100 µM; in test [3] it was 2.87 µM; in test [4], 1.56 µM; in test [6] it was 0.478 µM; in test [7], above 100 µM; in test [8], above 100 µM.
